# Experimental data reported in US20220054447A1, “CANNABIS COMPOSITIONS AND METHODS” (priority 2018, published 2022).
# Marks after values point to notes of the source that are not given here.
# Columns and labels:
# [1] = 9-month stability of dried cannabis drug stored in a vault (not under nitrogen); assay type: physicochemical; design: Analyte content, Nov. 17, 2016: unit not given beside the values; conditions: for Analyte content, Aug. 10, 2017 / Analyte content, Nov. 17, 2016: dried cannabis drug stored in a vault, not under nitrogen; for Analyte content, Aug. 10, 2017: 9 months; for Analyte content, Nov. 17, 2016: Day 0; for % Change from Day 0: 9-month storage, <0.05 assumed to be 0.05 for calculation
# From the text: A schematic depicting the production of exemplary cannabinoic acids and subsequent transformation to the related neutral form by conditions such as oxidation, heat and time is shown in FIG. 3.
# [2] = Dose uniformity of pellets; assay type: physicochemical
# From the text: The dose uniformity studies show improvement subsequent to optimization of the blending process. […] After optimizing the process, the dose uniformity for clinical batches was 5.59% and 5.13% for THC and THCA, respectively.
# [3] = cited from earlier work; for log P (octanol/water partition coefficient): United Nations Office on Drugs and Crime, 2009
# [4] = Phase 1 clinical batch, before optimization of blending
# [5] = clinical batches after optimizing the process
compound,measurement,setting,value
"CCCCCc1cc2c(c(O)c1C(=O)O)[C@@H]1C=C(C)CC[C@H]1C(C)(C)O2 [THCA, tetrahydrocannabinolic acid]","Analyte content, Aug. 10, 2017",[1],6.02
same,"Analyte content, Nov. 17, 2016",[1],9.68
same,"Dose uniformity, % variability",[2]; [4],15.07%
same,"Dose uniformity, % variability",[2]; [5],5.13%
"C=C(C)[C@@H]1CCC(C)=C[C@H]1c1c(O)cc(CCCCC)cc1O [CBD, cannabidiol, reference compound]",% Change from Day 0,[1],1260%
same,"Analyte content, Aug. 10, 2017",[1],0.68
same,"Analyte content, Nov. 17, 2016",[1],<0.05*
same,log P (octanol/water partition coefficient),[3],5.79
same,Solubility in ethanol,[3],soluble in ethanol
same,Solubility in water,[3],not soluble in water
"C=C(C)[C@@H]1CCC(C)=C[C@H]1c1c(O)cc(CCCCC)c(C(=O)O)c1O [CBDA, cannabidiolic acid]",% Change from Day 0,[1],33.9%
same,"Analyte content, Aug. 10, 2017",[1],2.03
same,"Analyte content, Nov. 17, 2016",[1],3.07
"CCCCCc1cc(O)c(C/C=C(\C)CCC=C(C)C)c(O)c1C(=O)O [CBGA, cannabigerolic acid]","Analyte content, Aug. 10, 2017",[1],0.26
same,"Analyte content, Nov. 17, 2016",[1],0.37
"CCCCCc1cc(O)c2c(c1)OC(C)(C)[C@@H]1CCC(C)=C[C@@H]21 [THC, tetrahydrocannabinol, reference compound]",% Change from Day 0,[1],733%
same,"Analyte content, Aug. 10, 2017",[1],1.75
same,"Analyte content, Nov. 17, 2016",[1],0.21
same,"Dose uniformity, % variability",[2]; [4],12.82%
same,"Dose uniformity, % variability",[2]; [5],5.59%
same,log P (octanol/water partition coefficient),[3],6.99
same,Stability,"[3]; pure THC, Mechoulam 1970, NIH 1996","unstable in air, light, and at high temperatures"
"CCCCCc1cc(O)c(C/C=C(\C)CCC=C(C)C)c(O)c1 [CBG, cannabigerol]",% Change from Day 0,[1],140%
same,"Analyte content, Aug. 10, 2017",[1],0.12
same,"Analyte content, Nov. 17, 2016",[1],<0.05*
